From paper PMC5007552, “The hVps34‐SGK3 pathway alleviates sustained PI3K/Akt inhibition by stimulating mTORC1 and tumour growth” (The EMBO Journal, 2016)
Values joined by “and” are separate entries in the source; they are usually repeats but may differ in a detail not shown here. Equal values may be shown once.

Test system: ZR-75-1 cells
Test: NanoString human kinome mRNA quantification
Assay type: cell-based
From the text: Human mRNAs were hybridised to NanoString human kinome and control code sets, then subjected to quantification using NanoString software. […] To permit data compaction, and simple kinome‐wide comparisons, the fold changes are log2 transformed. […] Cell pellets were resuspended at a concentration of ~6,500 cells/μl in RLT buffer (Qiagen). […] For total copy numbers, triplicate normalised count values were averaged, and to calculate fold induction, means were divided by triplicate mean values from matched DMSO controls. P‐values were calculated using unpaired t‐test (GraphPad Prism software) by employing treated and control count data for each kinase mRNA.

NC1(c2ccc(-c3nc4ccn5c(=O)[nH]nc5c4cc3-c3ccccc3)cc2)CCC1 [MK-2206]
MAST2 Normalised counts (single replicates) (MAST2 mRNA, replicates 1-3): 738.65 and 699.23 and 725.5
MAST3 Normalised counts (single replicates) (MAST3 mRNA, replicates 1-3): 218.81
MAST4 Normalised counts Average (MAST4 mRNA, average of 3): 166.143
MAST4 Normalised counts (single replicates) (MAST4 mRNA, replicates 1-3): 166 and 165.82 and 166.61
MASTL Normalised counts Average (MASTL mRNA, average of 3): 679.5
MASTL Normalised counts (single replicates) (MASTL mRNA, replicates 1-3): 701.38 and 631.47 and 705.65
MATK Normalised counts (single replicates) (MATK mRNA, replicates 1-3): 210.28
MERTK Normalised counts Average (MERTK mRNA, average of 3): 1
MERTK Normalised counts (single replicates) (MERTK mRNA, replicates 1-3): 1
MET Normalised counts Average (MET mRNA, average of 3): 45.06
MET Normalised counts (single replicates) (MET mRNA, replicates 1-3): 44.2 and 35.51 and 55.47
MINK1 Normalised counts Average (MINK1 mRNA, average of 3): 1315.77
MINK1 Normalised counts (single replicates) (MINK1 mRNA, replicates 1-3): 1338.56 and 1283.89 and 1324.87
Average normalised counts (MKNK1 mRNA): 747.723
Average normalised counts (MKNK2 mRNA): 1542.12
Average normalised counts (MLKL mRNA): 206.987
Average normalised counts (MOK mRNA): 276.793
Average normalised counts (MOS mRNA): 1.463
Average normalised counts (MST1R mRNA): 587.597
Average normalised counts (MST4 mRNA): 1197.2
Average normalised counts (MTOR mRNA): 1169.76
Average normalised counts (MUSK mRNA): 1
Average normalised counts (MYLK2 mRNA): 3.573
Average normalised counts (MYLK3 mRNA): 4.65
Average normalised counts (MYLK4 mRNA): 3.183
Average normalised counts (MYLK mRNA): 35.0933
Average normalised counts (MYO3B mRNA): 1.693
Average normalised counts (NEK1 mRNA): 126.33
Average normalised counts (NEK2 mRNA): 1658.91
Average normalised counts (NEK3 mRNA): 279.833
Average normalised counts (NEK5 mRNA): 63.3867
Average normalised counts (NEK6 mRNA): 316.677
Average normalised counts (NEK7 mRNA): 1505.67
Average normalised counts (NEK8 mRNA): 178.517
Average normalised counts (NEK9 mRNA): 368.757
Average normalised counts (NEK10 mRNA): 2.217
Average normalised counts (NIM1 mRNA): 1.163
Average normalised counts (NLK mRNA): 173.16
Average normalised counts (NPR1 mRNA): 1
Average normalised counts (NPR2 mRNA): 1
Average normalised counts (NRBP1 mRNA): 1653.03
Average normalised counts (NRBP2 mRNA): 1124.63
Average normalised counts (NRK mRNA): 29.1233
Average normalised counts (NTRK1 mRNA): 2.95
Average normalised counts (NTRK2 mRNA): 77.2267
Average normalised counts (NTRK3 mRNA): 11.2267
Average normalised counts (NUAK1 mRNA): 101.57
Average normalised counts (NUAK2 mRNA): 96.2433
Average normalised counts (OBSCN mRNA): 96.8
Average normalised counts (OXSR1 mRNA): 220.06
Average normalised counts (PAK1 mRNA): 710.853
Average normalised counts (PAK2 mRNA): 2547.5
Average normalised counts (PAK3 mRNA): 3.48
Average normalised counts (PAK4 mRNA): 1206.53
Average normalised counts (PAK6 mRNA): 64.56
Average normalised counts (PAK7 mRNA): 2.957
Average normalised counts (PAN3 mRNA): 788.86
ROCK2 normalised counts, average (ROCK2 mRNA, average of 3 replicates): 1654.49
ROCK2 normalised counts (ROCK2 mRNA, single replicates): 1580.35 and 1693.07 and 1690.04
ROR1 normalised counts, average (ROR1 mRNA, average of 3 replicates): 3.17
ROR1 normalised counts (ROR1 mRNA, single replicates): 1.48 and 3.37 and 4.66
ROR2 normalised counts, average (ROR2 mRNA, average of 3 replicates): 177.843
ROR2 normalised counts (ROR2 mRNA, single replicates): 183.27 and 188.41 and 161.85
ROS1 normalised counts, average (ROS1 mRNA, average of 3 replicates): 1
ROS1 normalised counts (ROS1 mRNA, single replicates): 1
RPS6KA1 normalised counts, average (RPS6KA1 mRNA, average of 3 replicates): 743.577
RPS6KA1 normalised counts (RPS6KA1 mRNA, single replicates): 752.28 and 733.11 and 745.34
RPS6KA2 normalised counts, average (RPS6KA2 mRNA, average of 3 replicates): 42.18
RPS6KA2 normalised counts (RPS6KA2 mRNA, single replicates): 39.65 and 43.33 and 43.56
RPS6KA3 normalised counts, average (RPS6KA3 mRNA, average of 3 replicates): 81.17
RPS6KA3 normalised counts (RPS6KA3 mRNA, single replicates): 77.83 and 82.42 and 83.26
RPS6KA4 normalised counts, average (RPS6KA4 mRNA, average of 3 replicates): 830.71
RPS6KA4 normalised counts (RPS6KA4 mRNA, single replicates): 858.63 and 809.56 and 823.94
RPS6KA5 normalised counts, average (RPS6KA5 mRNA, average of 3 replicates): 131.06
RPS6KA5 normalised counts (RPS6KA5 mRNA, single replicates): 126.01 and 136.28 and 130.89
RPS6KA6 normalised counts, average (RPS6KA6 mRNA, average of 3 replicates): 136.14
RPS6KA6 normalised counts (RPS6KA6 mRNA, single replicates): 127.82 and 135.42 and 145.18
RPS6KB1 normalised counts, average (RPS6KB1 mRNA, average of 3 replicates): 1559.99
RPS6KB1 normalised counts (RPS6KB1 mRNA, single replicates): 1574.89 and 1571.44 and 1533.65
RPS6KB2 normalised counts, average (RPS6KB2 mRNA, average of 3 replicates): 3538.09
RPS6KB2 normalised counts (RPS6KB2 mRNA, single replicates): 3546.44 and 3576.5 and 3491.33
RPS6KC1 normalised counts, average (RPS6KC1 mRNA, average of 3 replicates): 1368.65
RPS6KC1 normalised counts (RPS6KC1 mRNA, single replicates): 1361.29 and 1349.92 and 1394.73
RPS6KL1 normalised counts, average (RPS6KL1 mRNA, average of 3 replicates): 85.8967
RPS6KL1 normalised counts (RPS6KL1 mRNA, single replicates): 86.01 and 87.63 and 84.05
RYK normalised counts, average (RYK mRNA, average of 3 replicates): 1136.11
